Drawing on patent publication EP0401715B1, “Aminoketone compounds” (priority 1989, dated 1990), this text covers IC50 for two compounds.

The assay deals with T1, cholinesterase (Rattus norvegicus, UniProt P37136).
T1 construct: The S₁ fraction of a cerebral cortex homogenate from male Wistar rats was used as the cholinesterase source; from tissue; host or cells: S1 fraction of cerebral cortex homogenate, male Wistar rats
Kind of assay: Anticholinesterase activity using (acetyl-[³H])-acetylcholine as substrate. It counts as biochemical, male Wistar rats. Here is the method: The anticholinesterase activity of the compound of the invention was evaluated using (acetyl-[³H])-acetylcholine. The S₁ fraction of a cerebral cortex homogenate from male Wistar rats was used as the cholinesterase source, (acetyl-[³H])-acetylcholine as the substrate and the test compound of the invention as the test substance. The incubation was carried out for 30 minutes and after the reaction was terminated, the system was shaken with a toluene scintillator to thereby transfer [³H]-acetic acid into the toluene layer. The radioactivity in the toluene layer was then measured with a liquid scintillation counter to estimate the anticholinesterase activity of the test compound.

Counter-ions that a name gives are not always drawn. Like-named read-outs stand apart in the source and are kept apart here.

T1 sequence (P37136 32-614): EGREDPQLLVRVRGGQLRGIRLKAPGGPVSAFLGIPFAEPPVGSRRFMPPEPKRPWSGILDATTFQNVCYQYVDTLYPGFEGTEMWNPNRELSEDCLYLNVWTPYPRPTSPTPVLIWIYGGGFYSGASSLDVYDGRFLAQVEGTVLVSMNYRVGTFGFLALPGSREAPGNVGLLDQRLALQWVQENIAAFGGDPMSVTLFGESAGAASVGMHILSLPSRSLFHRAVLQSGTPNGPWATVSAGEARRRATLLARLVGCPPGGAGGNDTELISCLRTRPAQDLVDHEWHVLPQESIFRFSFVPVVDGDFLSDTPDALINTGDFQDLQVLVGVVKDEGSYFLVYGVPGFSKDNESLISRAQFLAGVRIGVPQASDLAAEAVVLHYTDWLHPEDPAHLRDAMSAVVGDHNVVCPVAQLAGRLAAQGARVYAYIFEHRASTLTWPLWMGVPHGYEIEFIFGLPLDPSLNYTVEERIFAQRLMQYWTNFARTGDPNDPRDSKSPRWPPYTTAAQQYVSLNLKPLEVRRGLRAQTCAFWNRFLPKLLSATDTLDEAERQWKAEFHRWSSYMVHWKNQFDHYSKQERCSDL

`CCN(CCCCCC(=O)c1ccc(N2CCCC2)cc1)Cc1ccccc1` [Example 4-2, N-Ethyl-N-(phenylmethyl)-N-[6-(4-pyrrolidinophenyl)-6-oxohexyl]amine fumarate] showed an IC50 of 310 nM.

`CCN(CCCCCC(=O)c1ccc(N2CCCC2)cc1)Cc1ccccc1OC` [Example 4-3, N-Ethyl-N-[(2-methoxyphenyl)methyl]-N-[6-(4-pyrrolidinophenyl)-6-oxohexyl]amine fumarate]: the IC50 (S₁ fraction of a cerebral cortex homogenate from male Wistar rats as cholinesterase source, incubation 30 minutes, read-out: Anticholinesterase activity, IC₅₀) amounted to 50 nM.
